Source: patent US7951815B2, “Substituted 1,4,8-triazaspiro [4,5]decan-2-one compounds” (Gruenenthal GmbH, priority 2004, dated 2011)
Like-named read-outs stand apart in the source and are kept apart here.

Legend:
5-HT transporter = biological target: T1, 5-HT transporter (Rattus norvegicus, UniProt P31652); experiment: Inhibition of 5-HT uptake in rat brain synaptosomes; assay type: biochemical; conditions: rat, 1 μM; for inhibition at 1 µM: read-out: Uptake 5-HT, % inhibition
T1 construct: synaptosomes of rat brain areas are freshly isolated; from tissue; host or cells: rat brain synaptosomes (P2 fraction) from marrow and pons

[1] = test system: batrachotoxin (BTX) binding site of the sodium channel; experiment: Affinity to the batrachotoxin (BTX) binding site of the sodium channel; conditions: rat cerebrocortex synaptosomes, test concentration not given

T1 sequence (P31652 whole entry): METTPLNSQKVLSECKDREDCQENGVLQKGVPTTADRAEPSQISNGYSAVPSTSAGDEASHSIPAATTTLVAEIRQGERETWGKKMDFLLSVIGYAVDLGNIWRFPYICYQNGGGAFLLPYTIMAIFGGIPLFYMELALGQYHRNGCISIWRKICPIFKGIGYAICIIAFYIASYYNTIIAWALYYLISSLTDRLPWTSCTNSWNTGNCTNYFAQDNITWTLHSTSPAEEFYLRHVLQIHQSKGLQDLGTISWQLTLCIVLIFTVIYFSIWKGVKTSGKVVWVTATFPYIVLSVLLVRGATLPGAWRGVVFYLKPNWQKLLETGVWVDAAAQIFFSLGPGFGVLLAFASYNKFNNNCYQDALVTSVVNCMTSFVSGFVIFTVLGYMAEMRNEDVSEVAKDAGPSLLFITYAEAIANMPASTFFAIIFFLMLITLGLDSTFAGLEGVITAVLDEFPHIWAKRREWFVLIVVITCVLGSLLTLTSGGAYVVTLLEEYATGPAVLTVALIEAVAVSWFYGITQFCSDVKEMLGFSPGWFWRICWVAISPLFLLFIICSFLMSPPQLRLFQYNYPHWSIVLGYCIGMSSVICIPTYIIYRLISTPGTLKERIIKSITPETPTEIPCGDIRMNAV

In the case of COC(=O)c1ccc(CN2C(=O)C(C(C)C)NC23CCN(C(=O)c2ccc(C(F)(F)F)c(F)c2)CC3)cc1 (centres unmarked) [Example 204, Methyl 4-[8-(3-fluoro-4-trifluoromethylbenzoyl)-3-isopropyl-2-oxo-1,4,8-triazaspiro[4,5]dec-1-ylmethyl]benzoate], the inhibition at 1 µM (5-HT transporter; Table III) is reported as 42% and the BTX inhibition ([1]; Table III) is reported as 44.

Cc1cc(C)cc(CN2C(=O)C(CC(C)C)NC23CCN(C(=O)CN(C)C)CC3)c1 (centres unmarked) [Example 309, 8-(2-Dimethylaminoacetyl)-1-(3,5-dimethylbenzyl)-3-isobutyl-1,4,8-triazaspiro[4,5]decan-2-one] showed an inhibition at 1 µM (5-HT transporter; Table III) of 43% and a BTX inhibition ([1]; Table III) of 82.

Work on COc1ccc(C(=O)N2CCC3(CC2)NCC(=O)N3Cc2ccccc2F)cc1 [Example 285, 1-(2-Fluorobenzyl)-8-(4-methoxybenzoyl)-1,4,8-triazaspiro[4,5]decan-2-one] yielded an inhibition at 1 µM (5-HT transporter; Table III) of 65% and a BTX inhibition ([1]; Table III) of 32.

Compound CCCCN1C(=O)C(Cc2ccccc2)NC12CCN(C(=O)C1CCCCC1)CC2 (centres unmarked) [Example 180, 3-Benzyl-1-butyl-8-cyclohexanecarbonyl-1,4,8-triazaspiro[4,5]decan-2-one] has an inhibition at 1 µM (5-HT transporter; Table III) of 63% and a BTX inhibition ([1]; Table III) of 42.

In the case of CN1C(=O)C(Cc2ccccc2)NC12CCN(C(=O)C=Cc1ccccc1Cl)CC2 (centres unmarked) [Example 203, 3-Benzyl-8-[3-(2-chlorophenyl)acryloyl]-1-methyl-1,4,8-triazaspiro[4,5]decan-2-one], the inhibition at 1 µM (5-HT transporter; Table III) is reported as 34% and the BTX inhibition ([1]; Table III) is reported as 48.

Compound CCCc1ccc(C(=O)N2CCC3(CC2)NC(CC(C)C)C(=O)N3Cc2c(Cl)cccc2Cl)cc1 (centres unmarked) [Example 317, 1-(2,6-Dichlorobenzyl)-3-isobutyl-8-(4-propylbenzoyl)-1,4,8-triazaspiro[4,5]decan-2-one] has an inhibition at 1 µM (5-HT transporter; Table III) of 33% and a BTX inhibition ([1]; Table III) of 62.

CCSc1ncccc1C(=O)N1CCC2(CC1)NC(CC(C)C)C(=O)N2CCCCOC(C)=O (centres unmarked) [Example 257, Butyl 4-[8-(2-ethylsulfanylpyridin-3-carbonyl)-3-isobutyl-2-oxo-1,4,8-triazaspiro[4,5]dec-1-yl]acetate] was tested, and the “Uptake 5-HT, rat, 1 μM, % inhibition” value (5-HT transporter; Table III) was 59% and the BTX inhibition ([1]; Table III) was 35.

In the case of Cl.O=C(c1cccc(F)c1F)N1CCC2(CC1)N[C@@H](Cc1ccccc1)C(=O)N2Cc1ccccc1 [Example 54, 1,3-(S)-dibenzyl-8-(2,3-difluorobenzoyl)-1,4,8-triazaspiro[4,5]decan-2-one hydrochloride], the inhibition at 1 µM (5-HT transporter; Table II) is reported as 81% and the BTX inhibition ([1]; Table II) is reported as 37.

COC(=O)c1ccc(CN2C(=O)CNC23CCN(C(=O)c2cc(C(C)(C)C)oc2C)CC3)cc1 [Example 292, Methyl 4-[8-(5-tert-butyl-2-methylfuran-3-carbonyl)-2-oxo-1,4,8-triazaspiro[4,5]dec-1-ylmethyl]benzoate] showed an inhibition at 1 µM (5-HT transporter; Table III) of 40% and a BTX inhibition ([1]; Table III) of 40.

Compound CSCCC1NC2(CCN(C(=O)c3c(Cl)ccc(C)c3F)CC2)N(Cc2ccccc2)C1=O (centres unmarked) [Example 240, 1-Benzyl-8-(6-chloro-2-fluoro-3-methylbenzoyl)-3-(2-methylsulfanylethyl)-1,4,8-triazaspiro[4,5]decan-2-one] has an inhibition at 1 µM (5-HT transporter; Table III) of 54% and a BTX inhibition ([1]; Table III) of 30.

Cc1onc(-c2c(F)cccc2Cl)c1C(=O)N1CCC2(CC1)NC(=O)C(C(C)C)N2 (centres unmarked) [Example 149, 8-[3-(2-Chloro-6-fluorophenyl)-5-methylisoxazole-4-carbonyl]-3-isopropyl-1,4,8-triazaspiro[4,5]decan-2-one] gave an inhibition at 1 µM (5-HT transporter; Table III) of 33% and a BTX inhibition ([1]; Table III) of 33.

CCCCCC(=O)N1CCC2(CC1)NC(C(C)C)C(=O)N2CCCC (centres unmarked) [Example 129, 1-Butyl-8-hexanoyl-3-isopropyl-1,4,8-triazaspiro[4,5]decan-2-one] showed an inhibition at 1 µM (5-HT transporter; Table III) of 47% and a BTX inhibition ([1]; Table III) of 30.

COc1ccc(CN2C(=O)[C@H](Cc3ccccc3)NC23CCN(C(=O)c2ccc(Cl)cc2)CC3)cc1.Cl (racemic) [Example 27, 3-(S,R)-benzyl-8-(4-chloro-benzoyl)-1-(4-methoxy-benzyl)-1,4,8-triazaspiro[4,5]decan-2-one hydrochloride] was tested, and the “Uptake 5-HT, rat, 1 μM, % inhibition” value (5-HT transporter; Table II) was 78% and the BTX inhibition ([1]; Table II) was 79.
